Reference: ChEMBL document CHEMBL1201862, “PubChem BioAssay data set” (2004)
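Method: 48-hour compound exposure of cells in 96-well plates, five concentrations, linear interpolation of endpoints. GI50 marks 50% less growth.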 The source made the active and inactive calls. No stated cut-off is given here; in the data, active = GI50 up to about 1.1 µM and inactive = higher. Square brackets hold non-standard residues; d marks the D form. Peptide text beside a SMILES is read from it. * marks the point of attachment. AllylGly = C=CC[CH](N)C(=O)O; Boc = CC(C)(C)OC(=O)*; OtBu = CC(C)(C)O*

What was measured:
Assay in all cases: NCI anticancer screen, dose series, 48 h
[1] = test system: MDA-MB-435
[2] = test system: HCT-15
[3] = test system: UO-31
[4] = test system: HCC 2998
[5] = test system: SF-295
[6] = test system: OVCAR-8
[7] = test system: RXF 393
[8] = test system: CCRF-CEM
[9] = test system: K562
[10] = test system: SK-OV-3
[11] = test system: SN12C
[12] = test system: CAKI-1
[13] = test system: LOX IMVI
[14] = test system: UACC-257
[15] = test system: U-251
[16] = test system: Malme-3M
[17] = test system: OVCAR-5
[18] = test system: NCI-H522
[19] = test system: SNB-19
[20] = test system: Hs-578T

| Compound | GI50 [1] | GI50 [2] [µM] | GI50 [3] | GI50 [4] | GI50 [5] | GI50 [6] | GI50 [7] | GI50 [8] | GI50 [9] | GI50 [10] | GI50 [11] | GI50 [12] | GI50 [13] | GI50 [14] | GI50 [15] | GI50 [16] | GI50 [17] | GI50 [18] | GI50 [19] | GI50 [20] |
| --- | --- | --- | --- | --- | --- | --- | --- | --- | --- | --- | --- | --- | --- | --- | --- | --- | --- | --- | --- | --- |
| COC(=O)C1=C(OC(=O)/C=C/c2ccccc2)C(C(=O)OC)[C@@]2(O)[C@@H](C(=O)OC)[C@H](C)C[C@@H]1[C@@H]2C(=O)OC (stereo not given in full) | 15.6 µM (inactive) | 11.7 | 17 µM (inactive) | 19.4 µM (inactive) | 19.9 µM (inactive) | 14.2 µM (inactive) | 4.05 µM (inactive) | 56.5 µM (inactive) | > 100 µM (inactive) | 21.4 µM (inactive) | 13.9 µM (inactive) | 15.7 µM (inactive) | 22.1 µM (inactive) | 20.1 µM (inactive) | 18.8 µM (inactive) | 15.8 µM (inactive) | 11.7 µM (inactive) | 5.58 µM (inactive) | 26.2 µM (inactive) | 14.7 µM (inactive) |
| CCOC(=O)Nc1nc2cc(Cn3cccc3)ccc2[nH]1 | 0.123 µM (active) | 0.986 | 14.4 µM (inactive) | 2.47 µM (inactive) | 0.807 µM (active) | 2.39 µM (inactive) | 4.03 µM (inactive) | 0.581 µM (active) | 0.359 µM (active) | 1.5 µM (inactive) | 2.33 µM (inactive) | 0.873 µM (active) | 2.55 µM (inactive) | 3.82 µM (inactive) | 1.2 µM (inactive) | 1.09 µM (active) | 16 µM (inactive) | 0.533 µM (active) | 1.83 µM (inactive) | 0.857 µM (active) |
| CCOC(=O)c1c(NC(=O)c2ccccc2)c(C#N)c2n1CCCCC2 | > 100 µM (inactive) | > 100 | > 100 µM (inactive) | > 100 µM (inactive) | > 100 µM (inactive) | > 100 µM (inactive) | > 100 µM (inactive) | > 100 µM (inactive) | > 100 µM (inactive) | > 100 µM (inactive) | > 100 µM (inactive) | > 100 µM (inactive) | > 100 µM (inactive) | > 100 µM (inactive) | > 100 µM (inactive) | > 100 µM (inactive) | > 100 µM (inactive) | > 100 µM (inactive) | > 100 µM (inactive) | > 100 µM (inactive) |
| CCOC(=O)CN1C(=O)c2ccc(NC(=O)C(=O)O)cc2S1(=O)=O | > 100 µM (inactive) | > 100 | > 100 µM (inactive) | > 100 µM (inactive) | > 100 µM (inactive) | > 100 µM (inactive) | > 100 µM (inactive) | > 100 µM (inactive) | > 100 µM (inactive) | > 100 µM (inactive) | > 100 µM (inactive) | > 100 µM (inactive) | > 100 µM (inactive) | > 100 µM (inactive) | > 100 µM (inactive) | > 100 µM (inactive) | > 100 µM (inactive) | > 100 µM (inactive) | > 100 µM (inactive) | > 100 µM (inactive) |
| Cc1ccc2c3ccc4c(c3n(C)c2c1)C(=O)C=CC4=O | 5.86 µM (inactive) | 4.6 | > 10 µM (inactive) | > 10 µM (inactive) | > 10 µM (inactive) | 4.47 µM (inactive) | 4.25 µM (inactive) | 0.335 µM (active) | 1.03 µM (active) | > 10 µM (inactive) | > 10 µM (inactive) | 3.36 µM (inactive) | > 10 µM (inactive) | 6.67 µM (inactive) | > 10 µM (inactive) | 2.58 µM (inactive) | > 10 µM (inactive) | 2.95 µM (inactive) | > 10 µM (inactive) | > 10 µM (inactive) |
| c1csc(-c2cscc2-c2ccsc2)c1 | 25.5 µM (inactive) | 30.3 | > 70.8 µM (inactive) | 28.4 µM (inactive) | > 66.8 µM (inactive) | 98.2 µM (inactive) | 20.9 µM (inactive) | 41.8 µM (inactive) | 31.6 µM (inactive) | 47.4 µM (inactive) | > 86.1 µM (inactive) | > 95.3 µM (inactive) | 41.1 µM (inactive) | > 94.4 µM (inactive) | > 100 µM (inactive) | 20.9 µM (inactive) | > 69.2 µM (inactive) | 22.2 µM (inactive) | > 57.5 µM (inactive) | 20.4 µM (inactive) |
| COc1cc(S(=O)(=O)Nc2nc(-c3ccc(/N=C/c4cccs4)cc3)cs2)ccc1Cl | > 100 µM (inactive) | 36.1 | 58.6 µM (inactive) | > 100 µM (inactive) | > 100 µM (inactive) | 40.7 µM (inactive) | 20.4 µM (inactive) | 33.7 µM (inactive) | 33.5 µM (inactive) | > 100 µM (inactive) | 28.8 µM (inactive) | > 100 µM (inactive) | 31 µM (inactive) | > 100 µM (inactive) | 81.1 µM (inactive) | > 100 µM (inactive) | > 100 µM (inactive) | 28.4 µM (inactive) | > 100 µM (inactive) | > 100 µM (inactive) |
| C=CCC(NC(=O)C(CC(=O)OC(C)(C)C)NC(=O)OC(C)(C)C)C(=O)OC (stereo not given) (Boc-Asp(OtBu)-[AllylGly]-OMe; configuration not given here) | > 53.2 µM (inactive) | > 100 | > 100 µM (inactive) | 25.9 µM (inactive) | > 100 µM (inactive) | 16 µM (inactive) | 99.3 µM (inactive) | 45.8 µM (inactive) | 47.8 µM (inactive) | > 100 µM (inactive) | > 67 µM (inactive) | > 100 µM (inactive) | 20.9 µM (inactive) | 24 µM (inactive) | > 42.9 µM (inactive) | 1.84 µM (inactive) | > 100 µM (inactive) | > 100 µM (inactive) | > 100 µM (inactive) | > 100 µM (inactive) |
| O=C(O)CNC(=O)CO/N=C1/C(=C2/C(=O)Nc3ccccc32)Nc2ccccc21 | > 100 µM (inactive) | 51.8 | 26.5 µM (inactive) | 47 µM (inactive) | > 100 µM (inactive) | > 100 µM (inactive) | 55.1 µM (inactive) | 42.8 µM (inactive) | > 100 µM (inactive) | 20.9 µM (inactive) | > 100 µM (inactive) | 28.1 µM (inactive) | > 100 µM (inactive) | > 100 µM (inactive) | > 100 µM (inactive) | > 100 µM (inactive) | > 100 µM (inactive) | > 100 µM (inactive) | 70.5 µM (inactive) | > 100 µM (inactive) |
